Laboratory results: ChEMBL document CHEMBL5120880, “Peptidomimetics: An Overview of Recent Medicinal Chemistry Efforts toward the Discovery of Novel Small Molecule Inhibitors” (J Med Chem, 2022)
Values after ≈ are worked out from the molar mass of the structure shown. Square brackets hold non-standard residues; d marks the D form. Peptide text beside a SMILES is read from it. * marks the point of attachment. Pro(cis-4-OPh) = O=C(O)[C@@H]1C[C@H](Oc2ccccc2)CN1; Bip = N[C@@H](Cc1ccc(-c2ccccc2)cc1)C(=O)O; X1 = CCCCCCCCCCCCCCCCCCS(=O)(=O)CCN*; Tle = CC(C)(C)[C@H](N)C(=O)O; X2 = CCCCCCCCCCCCCCCCCCSCCN*; NMeA = CN[C@@H](C)C(=O)O

Experiments:
Hepatitis C virus [1] = test: Antiviral activity against HCV genotype 1b/3a NS5A infected in human Huh-7 cells by phenotypic assay; assay type: functional, organism-based, Hepacivirus hominis
Hepatitis C virus [2] = test: Antiviral activity against HCV genotype 1b/6a NS5A infected in human Huh-7 cells by phenotypic assay; assay type: functional, organism-based, Hepacivirus hominis
BT-20 = test: Cytotoxicity against human BT-20 cells assessed as cell growth inhibition; assay type: functional, cell-based
SW480 = test: Cytotoxicity against human SW480 cells assessed as cell growth inhibition; assay type: functional, cell-based
MDA-MB-468 = test: Cytotoxicity against human MDA-MB-468 cells assessed as cell growth inhibition; assay type: functional, cell-based
MDA-MB-231 = test: Cytotoxicity against human MDA-MB-231 cells assessed as cell growth inhibition; assay type: functional, cell-based
HCT-116 = test: Cytotoxicity against human HCT-116 cells assessed as cell growth inhibition; assay type: functional, cell-based
A549 = test: Cytotoxicity against human A549 cells assessed as cell growth inhibition; assay type: functional, cell-based
Hepatitis C virus [3] = test: Antiviral activity against HCV; assay type: functional, organism-based, Hepacivirus hominis
FaDu = test: Antitumor activity against human FaDu cells assessed as cell growth inhibition; assay type: functional, cell-based
BT-474 = test: Antitumor activity against human BT-474 cells assessed as cell growth inhibition; assay type: functional, cell-based
NALM-6 = test: Antitumor activity against human NALM-6 cells assessed as cell growth inhibition; assay type: functional, cell-based
HCC1954 = test: Antitumor activity against human HCC1954 cells assessed as cell growth inhibition; assay type: functional, cell-based
Hep 3B2 = test: Antitumor activity against human Hep3B cells assessed as cell growth inhibition; assay type: functional, cell-based
Murine hepatitis virus = test: microbe, parasite or virus in culture; conditions: Murine coronavirus
SARS-CoV-2 [4] = test: microbe, parasite or virus in culture; conditions: Severe acute respiratory syndrome coronavirus 2
[5] = test system: Feline infectious peritonitis virus; test: microbe, parasite or virus in culture; conditions: Alphacoronavirus 1
SARS-CoV = test: microbe, parasite or virus in culture; conditions: Severe acute respiratory syndrome-related coronavirus
[6] = test system: Middle East respiratory syndrome-related coronavirus; test: microbe, parasite or virus in culture
SARS-CoV-2 [7] = test: Antiviral activity against SARS-CoV-2 by cell based assay; assay type: functional, organism-based; conditions: Severe acute respiratory syndrome coronavirus 2
HeLa = test: Antiproliferative activity against human HeLA cells by MTT assay; assay type: functional, cell-based
N2a = test: Antiproliferative activity against mouse N2a cells by MTT assay; assay type: functional, cell-based
[8] = molecular target: Catenin beta-1/Cadherin-1 (Homo sapiens, UniProt P12830+P35222); test: Binding affinity to beta-catenin/E-cadherin (unknown origin) assessed as inhibition constant; assay type: protein assay
Sequence of Catenin beta-1/Cadherin-1 (P35222 whole entry): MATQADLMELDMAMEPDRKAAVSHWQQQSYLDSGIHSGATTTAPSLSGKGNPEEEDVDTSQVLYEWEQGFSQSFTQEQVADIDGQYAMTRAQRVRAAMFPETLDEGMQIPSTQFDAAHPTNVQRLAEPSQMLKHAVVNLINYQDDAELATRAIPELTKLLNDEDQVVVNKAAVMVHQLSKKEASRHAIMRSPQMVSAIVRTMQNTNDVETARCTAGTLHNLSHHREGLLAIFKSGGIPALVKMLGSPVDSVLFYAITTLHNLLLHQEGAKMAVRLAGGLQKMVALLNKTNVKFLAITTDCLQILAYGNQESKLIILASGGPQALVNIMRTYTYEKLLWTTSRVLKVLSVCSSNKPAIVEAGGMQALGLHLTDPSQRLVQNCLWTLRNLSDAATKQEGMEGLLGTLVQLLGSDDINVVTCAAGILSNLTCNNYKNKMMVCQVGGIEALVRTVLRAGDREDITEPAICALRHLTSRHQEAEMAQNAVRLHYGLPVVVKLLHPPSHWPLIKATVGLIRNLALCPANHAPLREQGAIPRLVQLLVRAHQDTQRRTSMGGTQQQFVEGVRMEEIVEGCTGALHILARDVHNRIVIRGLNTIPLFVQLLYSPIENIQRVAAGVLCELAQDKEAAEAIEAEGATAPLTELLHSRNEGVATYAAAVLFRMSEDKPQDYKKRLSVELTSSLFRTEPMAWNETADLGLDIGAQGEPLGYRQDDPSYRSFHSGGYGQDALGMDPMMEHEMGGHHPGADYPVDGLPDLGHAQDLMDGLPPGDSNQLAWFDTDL
Sequence of Catenin beta-1/Cadherin-1 (P12830 whole entry): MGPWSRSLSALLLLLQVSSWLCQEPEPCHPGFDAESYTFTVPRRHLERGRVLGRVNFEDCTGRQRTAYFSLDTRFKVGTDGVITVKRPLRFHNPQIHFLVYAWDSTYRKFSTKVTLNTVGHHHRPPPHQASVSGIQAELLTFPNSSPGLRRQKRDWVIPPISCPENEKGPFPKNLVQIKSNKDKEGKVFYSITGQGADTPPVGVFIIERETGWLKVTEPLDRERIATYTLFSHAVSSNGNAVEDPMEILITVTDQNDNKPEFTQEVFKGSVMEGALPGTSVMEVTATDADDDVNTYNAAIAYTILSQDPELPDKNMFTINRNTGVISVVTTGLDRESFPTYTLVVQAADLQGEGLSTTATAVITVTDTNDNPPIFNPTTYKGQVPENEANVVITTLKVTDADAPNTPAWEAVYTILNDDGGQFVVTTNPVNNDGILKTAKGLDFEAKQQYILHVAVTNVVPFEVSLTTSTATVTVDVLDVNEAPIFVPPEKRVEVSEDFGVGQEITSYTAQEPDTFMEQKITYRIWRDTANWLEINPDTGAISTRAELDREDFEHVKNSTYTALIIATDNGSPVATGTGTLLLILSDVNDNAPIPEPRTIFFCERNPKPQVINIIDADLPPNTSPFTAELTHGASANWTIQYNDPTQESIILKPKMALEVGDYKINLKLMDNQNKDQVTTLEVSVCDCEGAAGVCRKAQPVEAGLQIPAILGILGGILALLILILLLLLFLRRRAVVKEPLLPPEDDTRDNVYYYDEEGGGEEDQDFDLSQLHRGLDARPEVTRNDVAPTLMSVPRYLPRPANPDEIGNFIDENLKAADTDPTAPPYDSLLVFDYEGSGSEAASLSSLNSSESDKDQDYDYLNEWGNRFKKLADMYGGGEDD

[9] = Binding affinity to beta-catenin/APC (unknown origin) assessed as inhibition constant; design: species or system Homo sapiens
Escherichia coli = test: Antibacterial activity against Escherichia coli AG100 assessed as minimal inhibitory concentration; assay type: functional
Staphylococcus aureus = test: Antibacterial activity against Staphylococcus aureus ATCC 29213 assessed as minimal inhibitory concentration; assay type: functional
[10] = molecular target: T1, Enoyl-[acyl-carrier-protein] reductase [NADH] FabI (Escherichia coli K-12, UniProt P0AEK4); test: Inhibition of Escherichia coli […] assessed as measuring NADH consumption rate
T1 sequence (P0AEK4 whole entry): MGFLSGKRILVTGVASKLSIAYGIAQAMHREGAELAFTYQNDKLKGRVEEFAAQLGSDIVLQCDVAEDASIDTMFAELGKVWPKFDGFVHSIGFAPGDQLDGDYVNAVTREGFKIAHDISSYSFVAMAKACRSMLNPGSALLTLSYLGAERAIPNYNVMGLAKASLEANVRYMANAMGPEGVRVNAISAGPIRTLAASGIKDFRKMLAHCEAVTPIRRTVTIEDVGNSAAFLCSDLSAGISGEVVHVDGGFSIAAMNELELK

[11] = test system: Klebsiella pneumoniae subsp. ozaenae; test: Antibacterial activity against Klebsiella pneumoniae A6030827 assessed as minimal inhibitory concentration; assay type: functional
Acinetobacter baumannii = test: Antibacterial activity against Acinetobacter baumannii ATCC BAA1605 assessed as minimal inhibitory concentration; assay type: functional
[12] = Inhibition of Acinetobacter baumannii […] assessed as measuring NADH consumption rate
[13] = test system: Middle East respiratory syndrome-related coronavirus; test: Antiviral activity against MERS-CoV by cell based assay; assay type: functional, organism-based
[14] = Inhibition of FITC-labeled NS4A binding to HCV NS3 (4 to 182 residues) expressed in Escherichia coli […] (DE3) incubated for 60 mins by fluorescence anisotropy based competition assay; design: species or system Hepacivirus hominis
[15] = Antitumor activity against human UM-SCC-5 cells assessed as cell growth inhibition; assay type: functional, cell-based
[16] = Antitumor activity against human UM-SCC-38 cells assessed as cell growth inhibition; assay type: functional, cell-based

COC(=O)N[C@H](C(=O)N1CCC[C@H]1c1ncc(-c2ccc(-c3ccc(-c4cnc([C@@H]5CCCN5C(=O)[C@@H](NC(=O)OC)C(C)C)[nH]4)cc3)cc2)[nH]1)C(C)C
EC50 (Hepatitis C virus [1]): 0.105 nM
EC50 (Hepatitis C virus [2]): 0.047 nM

CCOC(=O)CC[C@H](NC(=O)[C@H](Cc1nn[nH]n1)NC(=O)[C@H](Cc1ccc2ccccc2c1)NC(=O)c1cc2cc(Cl)ccc2[nH]1)C(=O)Nc1ccc(OC(F)(F)F)cc1
IC50 (BT-20): 16500 nM
IC50 (SW480): 14100 nM
IC50 (MDA-MB-468): 7250 nM
IC50 (MDA-MB-231): 12300 nM
IC50 (HCT-116): 69400 nM
IC50 (A549): 86400 nM

CC[C@@H]1[C@@H]2CN(C(=O)[C@H](C(C)(C)C)NC(=O)O[C@@H]3C[C@H]3CCCCC(F)(F)c3nc4ccc(OC)cc4nc3O2)[C@@H]1C(=O)N[C@]1(C(=O)NS(=O)(=O)C2(C)CC2)C[C@H]1C(F)F
EC50 (Hepatitis C virus [3]): 70 nM

NC(=O)CC[C@H](NC(=O)[C@H](Cc1nn[nH]n1)NC(=O)[C@H](Cc1ccc2ccccc2c1)NC(=O)c1cc2cc(Cl)ccc2[nH]1)C(=O)Nc1ccc(OC(F)(F)F)cc1
IC50 (BT-20): 38400 nM
IC50 (SW480): 28200 nM
IC50 (MDA-MB-468): 29200 nM
IC50 (MDA-MB-231): 34300 nM
IC50 (HCT-116): 63900 nM
IC50 (A549): 60300 nM

CCCCCCCCCCCCCCc1cccc(O[C@H]2C[C@@H](C(=O)NCC(c3ccccc3)c3ccccc3)N(C(=O)[C@@H](NC(=O)[C@H](C)NC)C(C)(C)C)C2)c1
EC50 (FaDu): 1500 nM
EC50 (BT-474): 7000 nM
EC50 (NALM-6): 11100 nM
EC50 (HCC1954): 19800 nM
EC50 (Hep 3B2): 2200 nM

CC(C)C[C@H](NC(=O)OC1CCC(F)(F)CC1)C(=O)N[C@H](C=O)C[C@H]1CCNC1=O
EC50 (Murine hepatitis virus): 80 nM
IC50 (SARS-CoV-2 [4]): 1500 nM
EC50 [5]: 120 nM
IC50 (SARS-CoV): 2300 nM
IC50 [6]: 70 nM
EC50 (SARS-CoV-2 [7]): 110 nM

CCCCC1CCC(OC(=O)N[C@@H](CC(C)C)C(=O)N[C@H](C=O)C[C@H]2CCNC2=O)CC1 (some centres not stated)
EC50 (Murine hepatitis virus): 120 nM
IC50 (SARS-CoV-2 [4]): 800 nM
EC50 [5]: 220 nM
IC50 (SARS-CoV): 900 nM
IC50 [6]: 150 nM
EC50 (SARS-CoV-2 [7]): 100 nM

COC(=O)N[C@H](C(=O)N1CCC[C@H]1C(=O)Nc1cccc(-c2ccc3c(c2)C(F)(F)c2cc(-c4cnc([C@@H]5CCCN5C(=O)[C@@H](NC(=O)OC)C(C)C)[nH]4)ccc2-3)c1)C(C)C
EC50 (Hepatitis C virus [1]): > 0.5 nM
EC50 (Hepatitis C virus [2]): 0.275 nM
EC50 (Hepatitis C virus [3]): < 0.05 nM

COC(=O)N[C@H](C(=O)N1CCC[C@H]1C(=O)Nc1cc2ccc1CCc1ccc(cc1NC(=O)[C@@H]1CCCN1C(=O)[C@@H](NC(=O)OC)C(C)C)CC2)C(C)C
EC50 (Hepatitis C virus [1]): > 0.5 nM
EC50 (Hepatitis C virus [2]): > 0.5 nM
EC50 (Hepatitis C virus [3]): 0.08 nM

O=C(Cc1ccccc1)NC1CC2CN(Cc3ccccc3)CC3C2CC=C(COC(=O)Cc2ccccc2)C13 (configuration not stated)
EC50 (HeLa): 10300 nM
EC50 (N2a): 2100 nM

CCCCCCCCCCCCCCCCCCS[C@H]1C[C@@H](C(=O)NCC(c2ccccc2)c2ccccc2)N(C(=O)[C@@H](NC(=O)[C@H](C)NC)C(C)(C)C)C1
EC50 (FaDu): 5400 nM
EC50 (BT-474): 10800 nM
EC50 (NALM-6): 26900 nM
EC50 (HCC1954): 17500 nM
EC50 (Hep 3B2): 12400 nM

O=C(O)CC[C@H](NC(=O)[C@H](Cc1nnn[nH]1)NC(=O)[C@H](Cc1ccc2ccccc2c1)NC(=O)c1cc2c(Cl)cccc2[nH]1)C(=O)Nc1ccc(OC(F)(F)F)cc1
Ki [8]: 13000 nM
Ki [9]: 173000 nM

Cc1c(CN(C)C(=O)/C=C/c2cnc3c(c2)CC[C@@H](N)C(=O)N3)oc2ccccc12.Cl
MIC (Escherichia coli): ≤ 4 µg/mL
MIC (Staphylococcus aureus): ≤ 4 µg/mL
IC50 [10]: < 10 nM
MIC [11]: ≤ 4 µg/mL
MIC (Acinetobacter baumannii): ≤ 4 µg/mL
IC50 [12]: < 10 nM

Cc1c(CN(C)C(=O)/C=C/c2cnc3c(c2)NC[C@@H](N)C(=O)N3)oc2ccccc12.Cl
MIC (Escherichia coli): < 4 µg/mL
MIC (Staphylococcus aureus): < 4 µg/mL
IC50 [10]: < 10 nM
MIC [11]: < 4 µg/mL
MIC (Acinetobacter baumannii): < 4 µg/mL
IC50 [12]: < 10 nM

CCCC1CCC(OC(=O)N[C@@H](CC(C)C)C(=O)N[C@H](C=O)C[C@H]2CCNC2=O)CC1 (some centres not stated)
EC50 (Murine hepatitis virus): 130 nM
IC50 (SARS-CoV-2 [4]): 1600 nM
EC50 [13]: 50 nM
EC50 [5]: 120 nM
EC50 (SARS-CoV-2 [7]): 100 nM

Cc1oc2c(N)cccc2c1CN(C)C(=O)/C=C/c1cnc2c(c1)CCC(N1CCCC1)C(=O)N2 (configuration not stated)
MIC (Escherichia coli): 8 µg/mL (≈ 16.9 µM)
MIC (Staphylococcus aureus): ≤ 4 µg/mL
IC50 [10]: < 10 nM
MIC (Acinetobacter baumannii): ≤ 4 µg/mL

COC(=O)N[C@H](C(=O)N1CCC[C@@H]1c1ncc(-c2cccc(-c3c4c(c(-c5cccc(-c6cnc([C@@H]7CCCN7C(=O)[C@H](NC(=O)OC)c7ccccc7)[nH]6)c5)c5c3C(C)(C)CC5)C(C)(C)CC4)c2)[nH]1)c1ccccc1
EC50 (Hepatitis C virus [1]): 0.053 nM

Cc1c(CN(C)C(=O)/C=C/c2cnc3c(c2)CC[C@@H](N2CCCC2)C(=O)N3)oc2ccccc12
MIC (Escherichia coli): ≤ 4 µg/mL
MIC (Staphylococcus aureus): ≤ 4 µg/mL
IC50 [10]: < 10 nM
MIC [11]: ≤ 4 µg/mL
MIC (Acinetobacter baumannii): ≤ 4 µg/mL
IC50 [12]: < 10 nM

COC(=O)N[C@@H](C(=O)N1CCC[C@H]1C(=O)Nc1cncc(-c2c3c(c(-c4cncc(NC(=O)[C@@H]5CCCN5C(=O)[C@H](NC(=O)OC)c5ccccc5)c4)c4c2C(C)(C)CC4)C(C)(C)CC3)c1)c1ccccc1
EC50 (Hepatitis C virus [2]): > 0.5 nM

Cc1c(CN(C)C(=O)/C=C/c2cnc3c(c2)NC[C@@H](N2C[C@@H](C)O[C@@H](C)C2)C(=O)N3)oc2ccccc12
MIC (Staphylococcus aureus): ≤ 4 µg/mL
IC50 [10]: < 10 nM
MIC [11]: 16 µg/mL (≈ 31.8 µM)
MIC (Acinetobacter baumannii): ≤ 4 µg/mL

CCCCCCNC(=O)c1ncc(C(=O)NCCCCNC(=N)N)[nH]1
IC50 [14]: 4700 nM

CCCCCNC(=O)c1ncc(C(=O)NCCCCNC(=N)N)[nH]1
IC50 [14]: 1910 nM

CNC(=O)CNC(=O)c1ncc(C(=O)NCCCCNC(=N)N)[nH]1
IC50 [14]: 1910 nM

CCCCCCCCCCCCCCCCCCS(=O)(=O)CCNC(=O)[C@H](Cc1ccc(-c2ccccc2)cc1)NC(=O)[C@@H]1C[C@H](Oc2ccccc2)CN1C(=O)[C@@H](NC(=O)[C@H](C)NC)C(C)(C)C (H-[NMeA][Tle][Pro(cis-4-OPh)][Bip]-X1)
EC50 [15]: 730 nM
EC50 [16]: 140 nM

CCCCCCCCCCCCCCCCCCSCCNC(=O)[C@H](Cc1ccc(-c2ccccc2)cc1)NC(=O)[C@@H]1C[C@H](Oc2ccccc2)CN1C(=O)[C@@H](NC(=O)[C@H](C)NC)C(C)(C)C (H-[NMeA][Tle][Pro(cis-4-OPh)][Bip]-X2)
EC50 [15]: 960 nM
EC50 [16]: 330 nM
